Some results are limits rather than exact numbers.

The first assay addresses T1, human cardiac ion channel proteins hKir3.1/Kir3.4 (Homo sapiens, UniProt P48544+P48549).
T1 construct: expressed in transfected cells
T1 sequence (P48549 1-501): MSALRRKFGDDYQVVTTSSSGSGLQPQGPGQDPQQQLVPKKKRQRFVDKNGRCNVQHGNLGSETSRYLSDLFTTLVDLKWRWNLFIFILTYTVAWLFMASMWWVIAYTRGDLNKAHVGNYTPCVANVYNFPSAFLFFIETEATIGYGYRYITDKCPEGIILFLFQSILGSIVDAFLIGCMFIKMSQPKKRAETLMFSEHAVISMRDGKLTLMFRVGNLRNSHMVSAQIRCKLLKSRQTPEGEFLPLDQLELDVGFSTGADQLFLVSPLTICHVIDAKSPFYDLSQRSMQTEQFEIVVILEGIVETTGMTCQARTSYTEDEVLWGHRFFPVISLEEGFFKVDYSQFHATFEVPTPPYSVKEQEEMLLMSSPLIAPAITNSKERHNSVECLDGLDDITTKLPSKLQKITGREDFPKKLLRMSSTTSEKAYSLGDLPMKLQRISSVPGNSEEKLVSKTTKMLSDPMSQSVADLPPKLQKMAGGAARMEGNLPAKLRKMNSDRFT
T1 sequence (P48544 1-419): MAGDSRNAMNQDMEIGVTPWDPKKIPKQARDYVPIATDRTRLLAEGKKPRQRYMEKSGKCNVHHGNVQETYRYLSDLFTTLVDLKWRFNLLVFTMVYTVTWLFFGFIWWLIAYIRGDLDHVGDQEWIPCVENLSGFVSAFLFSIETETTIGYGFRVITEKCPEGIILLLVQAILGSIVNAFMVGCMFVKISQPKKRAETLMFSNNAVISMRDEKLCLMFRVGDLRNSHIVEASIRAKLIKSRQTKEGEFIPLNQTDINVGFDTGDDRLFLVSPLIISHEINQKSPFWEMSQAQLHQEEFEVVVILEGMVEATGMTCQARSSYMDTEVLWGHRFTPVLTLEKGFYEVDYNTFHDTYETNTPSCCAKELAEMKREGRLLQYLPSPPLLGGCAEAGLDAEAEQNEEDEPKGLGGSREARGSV
Kind of assay: Atomic Absorption Screening (AAS) Rb efflux assay of hKir3.1/Kir3.4 block, carbachol/high K+ stimulated, 10-pt or 7-pt CR. It is filed as cell-based. Conditions: 7-pt CR (0.037 to 27 μmol/L), AAS Rb efflux, CHO-K1 cells expressing hKir3.1/Kir3.4; mean of >3 replicates; read-out: IKACh IC50 7-pt CR, AAS. An excerpt: Human KCNJ3 encoding Kir3.1 (Genbank acc. No. NM_002239) was inserted between EcoRI and NotI in the pIRESneo3 vector (Clontech Laboratories, Inc. CA, USA). Human KCNJ5 encoding Kir3.4 (Genbank Acc. No. BC069482) was inserted between EcoR1 and Not1 in the pIRESpuro3 vector (Clontech Laboratories, Inc. CA, USA). A Kozak sequence (GCCACC) was introduced before the start codon ATG of both constructs. Chinese Hamster Ovary K1, CHO-FLP/IN, cells (Invitrogen Corporation, Paisley, UK) were transfected simultaneously using Lipofectamine 2000 reagent (Invitrogen Corporation, Paisley, UK). Geneticin 600 μg/mL (Invitrogen Corporation, Paisley, UK) and puromycin 3 μg/mL (BD Bioscience) were added to the cell culture medium 3 days after transfection. Two weeks after transfection, colonies had appeared and were manually picked and sorted to one cell per well in a 96-well plate. Cells were then tested for Kir3.1 and Kir3.4 expression using membrane potential assay, Western Blot and Immunocytochemistry. […] The cell line was re-sorted by flow cytometry and resulting clones were assayed electrophysiologically using IonWorks (Molecular Devices) and later validated on the Q-Patch (Sophion A/S).
The stable cell line was cultured in DMEM/F12 with Glutamax 1 (Invitrogen Corporation, Paisley, UK), supplemented with foetal bovine serum 10%, puromycin 3 μg/mL, hygromycin 300 μg/mL and geneticin 600 μg/mL (Invitrogen Corporation, Paisley, UK). Care was taken not to seed cells at too low density and cells were passaged at approximately 70-80% confluency. Cells used for patch-clamp experiments were prepared by washing using PBS (—Mg, —Ca^2+), 2 times, detached using Accutase (Sigma). For Q-Patch measurements, storage medium was prepared fresh by adding 1.25 mL of 1M Hepes (GibcoBRL) to 50 mL CHO-SFM II medium (GibcoBRL) and detached cells were diluted to 2 million cells/mL in this medium. Frozen (Cryopreserved) cells were used for Atomic Absorption Screening (AAS) and plated poly-D-lysine 384-well plates (Greiner) at a density of 11,000-13,000 cells/well, the day before assay.
The blocking effects of compounds on the human cardiac ion channel proteins hKir3.1/Kir3.4 were assessed in CHO-K1 cells stably expressing the channel proteins using Atomic Absorption Screening (AAS). Cells were washed and then loaded with 25 μL Rb-loading buffer for three hours at 37° C. After that, the cells were washed again and 25 μL of diluted compound was transferred to the cell plate, incubated for 5 min in RT, and then […] of Carbachol/high K+ (10 μM carbachol and 20 mM KCl final concentration) buffer added to stimulate the cells and open the Kir3.1/Kir3.4 channel. After 10 min stimulation, […] of the supernatant was transferred to a new microplate, 45 μL washing buffer added to the supernatant and the level of Rb in the supernatant was then measured using an Aurora ICR 8000. Compounds were studied at concentrations ranging from 0.003 to 67 μmol/L (dilutions by three, 10-pt CR) or from 0.037 to 27 μmol/L (dilutions by three, 7-pt CR).
Stock solutions of compounds were prepared in DMSO 10 mM and stored at RT. Buffers used for AAS contained (in mM): HEPES 20, NaCl 150, MgCl2 1.0, CaCl2 2.0 and NaH2PO4 0.8 and Glucose 10 (wash 1) or KCl 5 and Glucose 5 (wash 2) or KCl 5 (dilution buffer). The High K^+ channel opener buffer contained (in mM): HEPES 20, NaCl 130, MgCl2 1.0, CaCl2 2.0 and NaH2PO4 0.8 together with KCl 20. Solutions used for Q-Patch (extracellular) in mM: NaCl 145, KCl 4, CaCl2 2.0, MgCl2 1.0, HEPES 10 and glucose 10. The high K^+ extra cellular solution used for Q-Patch in mM: NaCl 96.7, KCl 50.7, CaCl2 2.0, MgCl2 1.0, HEPES 10 and glucose 10 while the intra cellular solution used was (in mM): KCl 120, CaCl2 5.374, MgCl2 1.75, EGTA 10, KOH 3.125, HEPES 10, Na2ATP 4.
Results are given as mean IC50 of >4 replicates (10-pt CR, AAS) or >3 replicates (7-pt CR, AAS). Some of the data in Table 1 are mean values of two or more runs. […]
For `CC(C)[C@@H](CN1CCCC1)N(C)C(=O)c1ccc(Br)c(F)c1` [Example 16.52, (S)-4-Bromo-3-fluoro-N-methyl-N-(3-methyl-1-(pyrrolidin-1-yl)butan-2-yl)benzamide], the IC50 worked out at 3.2 µM.

Regarding `Cc1ccc(C(=O)N(C)[C@H](CN2CCCC2)C(C)C)cc1` [Example 16.14, (S)—N,4-Dimethyl-N-(3-methyl-1-(pyrrolidin-1-yl)butan-2-yl)benzamide], the IC50 was 6.7 µM. The same measure, in the same setting: the same measure for `CC(C)[C@@H](CN1CCCC1)N(C)C(=O)c1cc(F)cc(C(F)(F)F)c1` [Example 16.8, (S)-3-Fluoro-N-methyl-N-(3-methyl-1-(pyrrolidin-1-yl)butan-2-yl)-5-(trifluoromethyl)benzamide]: 8 µM; for `CC(C)[C@@H](CN1CCCCC1)N(C)C(=O)c1ccc(F)c(Cl)c1` [Example 16.33, 3-Chloro-4-fluoro-N-methyl-N-[(1S)-2-methyl-1-(piperidin-1-ylmethyl)propyl]-benzamide]: 6.7 µM.

Staying with this assay, now noted: 10-pt CR (0.003 to 67 μmol/L), AAS Rb efflux, CHO-K1 cells expressing hKir3.1/Kir3.4; mean of >4 replicates; read-out: IKACh IC50 10-pt CR, AAS.
For the molecule `CN(C(=O)c1ccc(F)cc1)[C@H](CN1CC(O)C1)C1CCCCC1` [Example 36.7, N-[(1S)-1-Cyclohexyl-2-(3-hydroxyazetidin-1-yl)ethyl]-4-fluoro-N-methylbenzamide], the half-inhibitory concentration (IC50) is 1.4 µM. `Cc1cc(C(=O)N(C)[C@H](CN2CC(O)(C3CC3)C2)C2CC2)ccc1F` [Example 9.1, (S)—N-(1-Cyclopropyl-2-(3-cyclopropyl-3-hydroxyazetidin-1-yl)ethyl)-4-fluoro-N,3-dimethylbenzamide]: the IC50 stood at 2.6 µM. On to `CC(C)[C@@H](CN1CCCC(F)(F)C1)N(C)C(=O)c1ccc(Br)cc1` [Example 16.5, (S)-4-Bromo-N-(1-(3,3-difluoropiperidin-1-yl)-3-methylbutan-2-yl)-N-methyl-benzamide], for which the IC50 stood at 11 µM. Same read-out and setting: the same measure for `CN(C(=O)c1ccc(C#N)cc1)C(CN1CC(O)C1)C1CCCC1` (single isomer, unassigned) [32.5, isomer 2]: 7.5 µM; for `Cc1ccc(C(=O)N(C)[C@H](CN2CCC(F)(F)C2)C(C)C)cc1C` [Example 21, (S)—N-(1-(3,3-Difluoropyrrolidin-1-yl)-3-methylbutan-2-yl)-N,3,4-trimethylbenzamide]: 19 µM; for `CCC[C@@H](CN1CCC1)N(C)C(=O)c1ccc(Cl)cc1Cl` [Example 1.1, (S)—N-(1-(Azetidin-1-yl)pentan-2-yl)-2,4-dichloro-N-methylbenzamide]: 2.3 µM.

Turning to `CC[C@H](C)[C@@H](CN1CC(O)C1)N(C)C(=O)c1ccc(C#N)cc1` [Example 29.5, 4-Cyano-N-((2S,3S)-1-(3-hydroxyazetidin-1-yl)-3-methylpentan-2-yl)-N-methylbenzamide], the IC50 amounted to 12 µM. Still for that read-out and setting: as for `CC(C)[C@@H](CN1CCCC1)N(C(=O)c1ccc(Cl)cc1)C1CCCC1` [Example 20, (S)-4-Chloro-N-cyclopentyl-N-(3-methyl-1-(pyrrolidin-1-yl)butan-2-yl)benzamide], the figure is 11 µM; as for `COc1ccc(C(=O)N(C)[C@H](CN2CC(O)C2)C2CCC2)cc1C` [Example 39.9, (S)—N-(1-Cyclobutyl-2-(3-hydroxyazetidin-1-yl)ethyl)-4-methoxy-N,3-dimethylbenzamide], 0.34 µM; as for `COC1CCN(C[C@H](C(C)C)N(C)C(=O)c2cccc(C)c2)CC1` [Example 3.10, (S)-N-(1-(4-Methoxypiperidin-1-yl)-3-methylbutan-2-yl)-N,3-dimethylbenzamide], 14 µM. For `COC1CCN(C[C@H](C(C)C)N(C)C(=O)c2ccc(F)c(C)c2)CC1` [Example 3.8, (S)-4-Fluoro-N-(1-(4-methoxypiperidin-1-yl)-3-methylbutan-2-yl)-N,3-dimethylbenzamide], the IC50 worked out at 4.8 µM. For the molecule `CN(C(=O)c1ccc(F)cc1Cl)[C@H](CN1CC(O)C1)C1CCC1` [Example 39.1, (S)-2-chloro-N-(1-cyclobutyl-2-(3-hydroxyazetidin-1-yl)ethyl)-4-fluoro-N-methylbenzamide], the IC50 turned out to be 1.1 µM. Regarding `Cc1cc(C(=O)N(C)[C@@H](C)CN2CC(O)C2)ccc1Cl` [Example 40.4, (S)-4-Chloro-N-(1-(3-hydroxyazetidin-1-yl)propan-2-yl)-N,3-dimethylbenzamide], the IC50 worked out at 6.1 µM. `COc1ccc(C(=O)N(C)[C@@H](CN2CC(O)C2)C2CCC2)c(F)c1` [Example 35.12, N-[(1R)-1-Cyclobutyl-2-(3-hydroxyazetidin-1-yl)ethyl]-2-fluoro-4-methoxy-N-methylbenzamide]: the IC50 was 16 µM.

Staying with this assay, now noted: printed as IC50 >67 μM in the 10-pt CR assay or IC50 >27 μM in the 7-pt CR assay; assay format per compound not stated; read-out: IC50.
For the molecule `CC(C)[C@@H](CN1CCCCC1)N(C)C(=O)c1cccc(C#N)c1` [3-Cyano-N-methyl-N-[(1S)-2-methyl-1-(piperidin-1-ylmethyl)propyl]benzamide], the 50% inhibitory concentration (IC50) was above 27 µM. Consider `CC(C)[C@H](CN1CCC1)N(C)C(=O)c1ccc(Br)cc1` [(R)-N-(1-(Azetidin-1-yl)-3-methylbutan-2-yl)-4-bromo-N-methylbenzamide], for which the IC50 was above 27 µM. `COc1cccc(C(=O)N(C)[C@H](CN2CC(F)C2)C(C)C)c1` [(S)-N-(1-(3-Fluoroazetidin-1-yl)-3-methylbutan-2-yl)-3-methoxy-N-methylbenzamide]: the IC50 is above 27 µM.

The values above are taken from US8361998B2, “Compounds and their use as IKACh blockers” (AstraZeneca AB, priority 2010, dated 2013).
